Measurements from patent US8734777B2, “Heterocyclic antiviral compounds” (priority 2010, dated 2014).

Tests used:
[1] = molecular target: T1, HCV polymerase (NS5B570n-Con1) (Hepatitis C virus genotype 1b, UniProt Q9WMX2); assay: HCV NS5B RNA polymerase activity assay; assay type: biochemical, HCV Con1 strain
T1 construct: contains a 21 amino acid deletion at the C-terminus relative to the full-length HCV polymerase; 6-histidine (N); made in house; host or cells: E. coli strain BL21(DE) pLysS, plasmid pET17b
Protocol: The enzymatic activity of HCV polymerase (NS5B570n-Con1) was measured as the incorporation of radiolabeled nucleotide monophosphates into acid insoluble RNA products. Unincorporated radiolabeled substrate was removed by filtration and scintillant was added to the washed and dried filter plate containing radiolabeled RNA product. The amount of RNA product generated by NS5B570-Con1 at the end of the reaction was directly proportional to the amount of light emitted by the scintillant.
The N-terminal 6-histidine tagged HCV polymerase, derived from HCV Con1 strain, genotype 1b (NS5B570n-Con1) contains a 21 amino acid deletion at the C-terminus relative to the full-length HCV polymerase and was purified from E. coli strain BL21(DE) pLysS. The construct, containing the coding sequence of HCV NS5B Con1 (GenBank accession number AJ242654) was inserted into the plasmid construct pET17b, downstream of a T7 promoter expression cassette and transformed into E. coli. A single colony was grown overnight as a starter culture and later used inoculate 10 L of LB media supplemented with 100 μg/mL ampicillin at 37° C. Protein expression was induced by the addition of 0.25 mM isopropyl-β-D-thiogalactopyranoside (IPTG) when optical density at […] of the culture was between 0.6 and 0.8 and cells were harvested after 16 to 18 h at 30° C. NS5B570n-Con1 was purified to homogeneity using a three-step protocol including subsequent column chromatography on Ni-NTA, SP-Sepharose HP and Superdex 75 resins. […]
The amount of light emitted from the scintillant was converted to counts per minute (CPM) on a Topcount® plate reader (Perkin-Elmer, Energy Range: Low, Efficiency Mode: Normal, Count Time: 1 min, Background Subtract: none, Cross talk reduction: Off).
Data was analyzed in Excel® (Microsoft®) and ActivityBase® (Idbs®). […] All data was expressed as a percentage of the positive control. […]

[2] = test system: HCV replicon cells (2209-23), genotype 1b replicon; assay: HCV replicon assay (Renilla luciferase reporter); assay type: cell-based, HCV genotype 1b; details: Hepatitis C virus, 72 h; 2209-23 cells, three days incubation, luciferase activity
in vitro = details: human

Compound	IC50 [1]	IC50 [2]	CC50 at 3 days (in vitro)	melting point
COc1c(C(C)(C)C)cc(-n2ccc(=O)[nH]c2=O)c2ccc(-c3ccc(NS(C)(=O)=O)cc3)nc12 [Compound I-3, N-{4-[7-tert-Butyl-5-(2,4-dioxo-3,4-dihydro-2H-pyrimidin-1-yl)-8-methoxy-quinolin-2-yl]-phenyl}-methanesulfonamide]	0.2 nM	17 nM	44000 nM	275 to 278 °C
COc1c(C(C)(C)C)cc(-c2ccc(C)[nH]c2=O)c2ccc(-c3ccc(NS(C)(=O)=O)cc3)nc12 [Compound I-2, N-{4-[7-tert-Butyl-8-methoxy-5-(6-methyl-2-oxo-1,2-dihydro-pyridin-3-yl)-quinolin-2-yl]-phenyl}-methanesulfonamide]	0.4 nM			
COc1c(C(C)(C)C)cc(-c2ccc[nH]c2=O)c2ccc(-c3ccc(NS(C)(=O)=O)cc3)nc12 [Compound I-1, N-{4-[7-tert-Butyl-8-methoxy-5-(2-oxo-1,2-dihydro-pyridin-3-yl)-quinolin-2-yl]-phenyl}-methanesulfonamide]	0.6 nM			
